Test results: patent publication US9951028B2, “Agricultural chemicals” (REDAG CROP PROTECTION LTD, priority 2013, dated 2018)

Legend:
Assay type in all cases: in vivo
[1] = tested on: garden cress, Lepidium sativum; assay: Herbicidal efficacy screen, potter tower spray, necrosis assessed; details: 200 g/ha
Experimental: (§1) Compounds 22, 23 and 24 were screened for herbicidal efficacy against target plants: garden cress, Lepidium sativum, common chickweed, Stellaria media, and white mustard […] alba Plants were obtained as seeds and were grown to the 2-4 true leaf stage. Plants were grown under laboratory conditions, individually in seed trays. Each plant (in an approximately 3 cm diameter plug) was then detached from the tray for spraying. The compounds were screened at a range of five concentrations, diluted in acetone and TweenTM. A carrier only control was also conducted. Treatments were applied directly onto the plants, using a potter tower, at a specified application rate. One plant of each species was sprayed using a potter tower. The 3 different types of plants were placed on a 10 cm diameter platform directly beneath the potter sprayer and sprayed simultaneously. The growth of the plants and any Phytotoxicity effects were then assessed at intervals over 21 days, according to EPPO guideline PP1/135. Five replicas were performed for each treatment, for each species. In the tables below C represents a percentage increase in necrosis relative to the control of 0.1-50; B represents a percentage inhibition of 50-80; and A represents a percentage inhibition of 80-100.

[2] = tested on: white mustard Sinapsis alba; assay: as above
Experimental: as §1

[3] = tested on: Abutilon theophrasti (China Jute); assay: Herbicidal efficacy screen, corrected necrosis
Experimental: (§2) Plants were obtained as seeds and were grown to the 2-4 true leaf stage. Plants were grown under laboratory conditions, individually in seed trays. Each plant (in an approximately 3 cm diameter plug) was then detached from the tray for spraying. The compounds were screened at a range of five concentrations, diluted in acetone and Tween™. A carrier only control was also conducted. Treatments were applied directly onto the plants, using a potter tower, at a specified application rate. One plant of each species was sprayed using a potter tower. The 3 different types of plants were placed on a 10 cm diameter platform directly beneath the potter sprayer and sprayed simultaneously. The growth of the plants and any Phytotoxicity effects were then assessed at intervals over 21 days, according to EPPO guideline PP1/135. In the tables below C represents a percentage increase in necrosis relative to the control of 0.1-50; B represents a percentage inhibition of 50-80; and A represents a percentage inhibition of 80-100. Certain compounds of the invention were screened for herbicidal efficacy against target plants: Amaranthus retroflexus (redroot pigweed), Abutilon theophrasti (China Jute): Capsella bursa-pastoris, (shepherd's-purse) Echinochloa crus-galli, Hordeum vulgare (Barley),

[4] = tested on: Amaranthus retroflexus (redroot pigweed); assay: Herbicidal efficacy screen, corrected necrosis
Experimental: as §2

[5] = tested on: Capsella bursa-pastoris, (shepherd's-purse); assay: Herbicidal efficacy screen, corrected necrosis
Experimental: as §2

[6] = 12.5 g/ha, day 1 post application
[7] = 12.5 g/ha, day 7 post application
[8] = 25 g/ha, day 1 post application
[9] = 25 g/ha, day 7 post application
[10] = 50 g/ha, day 1 post application
[11] = 50 g/ha, day 7 post application
[12] = 100 g/ha, day 1 post application
[13] = 100 g/ha, day 7 post application
[14] = 6.25 g/ha, day 1 post application
[15] = 6.25 g/ha, day 7 post application

CC(C)N(C)S(=O)(=O)/N=C/c1cc(-n2c(=O)cc(C(F)(F)F)n(C)c2=O)c(F)cc1Cl [Compound 22, 1-[4-Chloro-2-fluoro-5-[(E)-(isopropyl(methyl)sulfamoyl)iminomethyl]phenyl]-3-methyl-2,6-dioxo-4-(trifluoromethyl)pyrimidine] was tested, and the Average of necrosis ([1]; day 5 post application) was “B (B represents a percentage inhibition of 50-80)”, the Average of necrosis ([1]; day 7 post application) was “B (B represents a percentage inhibition of 50-80)” and the Average of necrosis ([1]; day 10 post application) was “A (A represents a percentage inhibition of 80-100)”. The Average of necrosis [2, 6] was “C (C represents a percentage increase in necrosis relative to the control of 0.1-50)”, the Average of necrosis ([2]; 12.5 g/ha, day 2 post application) was “C (C represents a percentage increase in necrosis relative to the control of 0.1-50)” and the Average of necrosis ([2]; 12.5 g/ha, day 3 post application) was “C (C represents a percentage increase in necrosis relative to the control of 0.1-50)”. For the same compound, the Average of necrosis ([2]; 12.5 g/ha, day 4 post application) was “C (C represents a percentage increase in necrosis relative to the control of 0.1-50)”, the Average of necrosis ([2]; 12.5 g/ha, day 5 post application) was “C (C represents a percentage increase in necrosis relative to the control of 0.1-50)” and the Average of necrosis [2, 7] was “C (C represents a percentage increase in necrosis relative to the control of 0.1-50)”. For the same compound, the Average of necrosis ([2]; 12.5 g/ha, day 10 post application) was “B (B represents a percentage inhibition of 50-80)”, the Average of necrosis [2, 8] was “C (C represents a percentage increase in necrosis relative to the control of 0.1-50)” and the Average of necrosis ([2]; 25 g/ha, day 2 post application) was “C (C represents a percentage increase in necrosis relative to the control of 0.1-50)”. The Average of necrosis ([2]; 25 g/ha, day 3 post application) was “C (C represents a percentage increase in necrosis relative to the control of 0.1-50)”, the Average of necrosis ([2]; 25 g/ha, day 4 post application) was “C (C represents a percentage increase in necrosis relative to the control of 0.1-50)” and the Average of necrosis ([2]; 25 g/ha, day 5 post application) was “C (C represents a percentage increase in necrosis relative to the control of 0.1-50)”. The Average of necrosis [2, 9] was “C (C represents a percentage increase in necrosis relative to the control of 0.1-50)”, the Average of necrosis ([2]; 25 g/ha, day 10 post application) was “C (C represents a percentage increase in necrosis relative to the control of 0.1-50)” and the Average of necrosis [2, 10] was “C (C represents a percentage increase in necrosis relative to the control of 0.1-50)”. The Average of necrosis ([2]; 50 g/ha, day 2 post application) was “C (C represents a percentage increase in necrosis relative to the control of 0.1-50)”, the Average of necrosis ([2]; 50 g/ha, day 3 post application) was “C (C represents a percentage increase in necrosis relative to the control of 0.1-50)” and the Average of necrosis ([2]; 50 g/ha, day 4 post application) was “C (C represents a percentage increase in necrosis relative to the control of 0.1-50)”. For the same compound, the Average of necrosis ([2]; 50 g/ha, day 5 post application) was “B (B represents a percentage inhibition of 50-80)”, the Average of necrosis [2, 11] was “B (B represents a percentage inhibition of 50-80)” and the Average of necrosis ([2]; 50 g/ha, day 10 post application) was “B (B represents a percentage inhibition of 50-80)”. For the same compound, the Average of necrosis [2, 12] was “C (C represents a percentage increase in necrosis relative to the control of 0.1-50)”, the Average of necrosis ([2]; 100 g/ha, day 2 post application) was “C (C represents a percentage increase in necrosis relative to the control of 0.1-50)” and the Average of necrosis ([2]; 100 g/ha, day 3 post application) was “C (C represents a percentage increase in necrosis relative to the control of 0.1-50)”. The Average of necrosis ([2]; 100 g/ha, day 4 post application) was “C (C represents a percentage increase in necrosis relative to the control of 0.1-50)”, the Average of necrosis ([2]; 100 g/ha, day 5 post application) was “C (C represents a percentage increase in necrosis relative to the control of 0.1-50)” and the Average of necrosis [2, 13] was “C (C represents a percentage increase in necrosis relative to the control of 0.1-50)”. For the same compound, the Average of necrosis ([2]; 100 g/ha, day 10 post application) was “B (B represents a percentage inhibition of 50-80)”, the Average of necrosis ([2]; 200 g/ha, day 1 post application) was “C (C represents a percentage increase in necrosis relative to the control of 0.1-50)” and the Average of necrosis ([2]; 200 g/ha, day 2 post application) was “C (C represents a percentage increase in necrosis relative to the control of 0.1-50)”. For the same compound, the Average of necrosis ([2]; 200 g/ha, day 3 post application) was “C (C represents a percentage increase in necrosis relative to the control of 0.1-50)”, the Average of necrosis ([2]; 200 g/ha, day 4 post application) was “C (C represents a percentage increase in necrosis relative to the control of 0.1-50)” and the Average of necrosis ([2]; 200 g/ha, day 5 post application) was “C (C represents a percentage increase in necrosis relative to the control of 0.1-50)”. For the same compound, the Average of necrosis ([2]; 200 g/ha, day 7 post application) was “C (C represents a percentage increase in necrosis relative to the control of 0.1-50)”, the Average of necrosis ([2]; 200 g/ha, day 10 post application) was “B (B represents a percentage inhibition of 50-80)” and the “Average of corrected necrosis” value [3, 14] was “C (C represents a percentage increase in necrosis relative to the control of 0.1-50)”. The “Average of corrected necrosis” value [3, 15] was “A (A represents a percentage inhibition of 80-100)”, the “Average of corrected necrosis” value [3, 6] was “C (C represents a percentage increase in necrosis relative to the control of 0.1-50)” and the “Average of corrected necrosis” value [3, 7] was “A (A represents a percentage inhibition of 80-100)”. The “Average of corrected necrosis” value [3, 8] was “C (C represents a percentage increase in necrosis relative to the control of 0.1-50)”, the “Average of corrected necrosis” value [3, 9] was “A (A represents a percentage inhibition of 80-100)” and the “Average of corrected necrosis” value [3, 10] was “C (C represents a percentage increase in necrosis relative to the control of 0.1-50)”. The “Average of corrected necrosis” value [3, 11] was “A (A represents a percentage inhibition of 80-100)”, the “Average of corrected necrosis” value [3, 12] was “C (C represents a percentage increase in necrosis relative to the control of 0.1-50)” and the “Average of corrected necrosis” value [3, 13] was “A (A represents a percentage inhibition of 80-100)”. The “Average of corrected necrosis” value [4, 14] was “C (C represents a percentage increase in necrosis relative to the control of 0.1-50)”, the “Average of corrected necrosis” value [4, 15] was “A (A represents a percentage inhibition of 80-100)” and the “Average of corrected necrosis” value [4, 6] was “C (C represents a percentage increase in necrosis relative to the control of 0.1-50)”. The “Average of corrected necrosis” value [4, 7] was “A (A represents a percentage inhibition of 80-100)”, the “Average of corrected necrosis” value [4, 8] was “C (C represents a percentage increase in necrosis relative to the control of 0.1-50)” and the “Average of corrected necrosis” value [4, 9] was “A (A represents a percentage inhibition of 80-100)”. For the same compound, the “Average of corrected necrosis” value [4, 10] was “C (C represents a percentage increase in necrosis relative to the control of 0.1-50)”, the “Average of corrected necrosis” value [4, 11] was “A (A represents a percentage inhibition of 80-100)” and the “Average of corrected necrosis” value [4, 12] was “C (C represents a percentage increase in necrosis relative to the control of 0.1-50)”. The “Average of corrected necrosis” value [4, 13] was “A (A represents a percentage inhibition of 80-100)”, the “Average of corrected necrosis” value [5, 14] was 0% and the “Average of corrected necrosis” value [5, 15] was “A (A represents a percentage inhibition of 80-100)”. For the same compound, the “Average of corrected necrosis” value [5, 6] was “C (C represents a percentage increase in necrosis relative to the control of 0.1-50)”, the “Average of corrected necrosis” value [5, 7] was “A (A represents a percentage inhibition of 80-100)” and the “Average of corrected necrosis” value [5, 8] was “C (C represents a percentage increase in necrosis relative to the control of 0.1-50)”. The “Average of corrected necrosis” value [5, 9] was “A (A represents a percentage inhibition of 80-100)”, the “Average of corrected necrosis” value [5, 10] was 0% and the “Average of corrected necrosis” value [5, 11] was “A (A represents a percentage inhibition of 80-100)”. For the same compound, the “Average of corrected necrosis” value [5, 12] was “C (C represents a percentage increase in necrosis relative to the control of 0.1-50)” and the “Average of corrected necrosis” value [5, 13] was “A (A represents a percentage inhibition of 80-100)”.
